Data reported in patent US20090068290A1, “BIFEPRUNOX DOSES FOR TREATING SCHIZOPHRENIA” (priority 2006, published 2009).

Columns and labels:
[1] = system: patients with chronic schizophrenia; assay: PANSS total score, Clinical Study Four; format: in vivo, human; conditions: FAS; for Change from Baseline in PANSS Total Score, Difference to PBO Mean / Adjusted Mean Change from Baseline in PANSS Total Score, Least Squares Estimates Mean / PANSS total, Adjusted Mean Change from Baseline (LS mean): ANCOVA; for PANSS total, Adjusted Mean Change from Baseline (LS mean): BX20 = 20 mg, BX30 = 30 mg
Experimental: (§1) METHODOLOGY: This study was a multinational, multicenter, randomized, double-blind, parallel-group, placebo-controlled, fixed-dose study. The study consisted of a 3- to 6-day antipsychotic-free run-in period, after which patients were randomised to 6 months of double-blind treatment with fixed doses of bifeprunox (20 mg/day (BX20) or 30 mg/day (BX30)) or placebo (PBO). Patients allocated to the BX groups were up-titrated from 0.25 mg/day over 7 days (BX20) or 8 days (BX30), and then continued on these doses for the remainder of the study. […] At predetermined time points, blood samples were obtained for drug concentration analysis of BX and its major metabolites (3′- and 4′-sulfate conjugates of BX), and pharmaco-economic assessments were performed.

[2] = system: patients with chronic schizophrenia; assay: CDSS total score, Clinical Study Four; format: in vivo, human; conditions: FAS, ANCOVA; for CDSS total, Adjusted Mean Change from Baseline (LS mean): LOCF
Experimental: as §1

O=c1[nH]c2cccc(N3CCN(Cc4cccc(-c5ccccc5)c4)CC3)c2o1 [Bifeprunox, 7-[4-([1,1′-biphenyl]-3-ylmethyl)-1-piperazinyl]-2(3H)-benzoxazolone]
Change from Baseline in PANSS Total Score, Difference to PBO Mean ([1]; Day 63, LOCF, listed as BX30): −4.68 | Adjusted Mean Change from Baseline in PANSS Total Score, Least Squares Estimates Mean ([1]; Day 63, OC, listed as BX20): −12.85 | Change from Baseline in PANSS Total Score, Difference to PBO Mean ([1]; Day 63, OC, listed as BX20): −4.52 | Adjusted Mean Change from Baseline in PANSS Total Score, Least Squares Estimates Mean ([1]; Day 63, OC, listed as BX30): −12.45 | Change from Baseline in PANSS Total Score, Difference to PBO Mean ([1]; Day 63, OC, listed as BX30): −4.12 | Adjusted Mean Change from Baseline in PANSS Total Score, Least Squares Estimates Mean ([1]; Day 63, POCF, listed as BX20): −10.03 | Change from Baseline in PANSS Total Score, Difference to PBO Mean ([1]; Day 63, POCF, listed as BX20): −4.83 | Adjusted Mean Change from Baseline in PANSS Total Score, Least Squares Estimates Mean ([1]; Day 63, POCF, listed as BX30): −8.97 | Change from Baseline in PANSS Total Score, Difference to PBO Mean ([1]; Day 63, POCF, listed as BX30): −3.77 | Adjusted Mean Change from Baseline in PANSS Total Score, Least Squares Estimates Mean ([1]; Day 90, LOCF, listed as BX20): −2.18 | Change from Baseline in PANSS Total Score, Difference to PBO Mean ([1]; Day 90, LOCF, listed as BX20): −5.85 | Adjusted Mean Change from Baseline in PANSS Total Score, Least Squares Estimates Mean ([1]; Day 90, LOCF, listed as BX30): −1.47 | Change from Baseline in PANSS Total Score, Difference to PBO Mean ([1]; Day 90, LOCF, listed as BX30): −5.14 | Adjusted Mean Change from Baseline in PANSS Total Score, Least Squares Estimates Mean ([1]; Day 90, OC, listed as BX20): −14.17 | Change from Baseline in PANSS Total Score, Difference to PBO Mean ([1]; Day 90, OC, listed as BX20): −4.92 | Adjusted Mean Change from Baseline in PANSS Total Score, Least Squares Estimates Mean ([1]; Day 90, OC, listed as BX30): −12.71 | Change from Baseline in PANSS Total Score, Difference to PBO Mean ([1]; Day 90, OC, listed as BX30): −3.46 | Adjusted Mean Change from Baseline in PANSS Total Score, Least Squares Estimates Mean ([1]; Day 90, POCF, listed as BX20): −10.43 | Change from Baseline in PANSS Total Score, Difference to PBO Mean ([1]; Day 90, POCF, listed as BX20): −5.19 | Adjusted Mean Change from Baseline in PANSS Total Score, Least Squares Estimates Mean ([1]; Day 90, POCF, listed as BX30): −9.25 | Change from Baseline in PANSS Total Score, Difference to PBO Mean ([1]; Day 90, POCF, listed as BX30): −4.00 | Adjusted Mean Change from Baseline in PANSS Total Score, Least Squares Estimates Mean ([1]; Day 120, LOCF, listed as BX20): −1.20 | Change from Baseline in PANSS Total Score, Difference to PBO Mean ([1]; Day 120, LOCF, listed as BX20): −6.50 | Adjusted Mean Change from Baseline in PANSS Total Score, Least Squares Estimates Mean ([1]; Day 120, LOCF, listed as BX30): −0.84 | Change from Baseline in PANSS Total Score, Difference to PBO Mean ([1]; Day 120, LOCF, listed as BX30): −6.14 | Adjusted Mean Change from Baseline in PANSS Total Score, Least Squares Estimates Mean ([1]; Day 120, OC, listed as BX20): −15.81 | Change from Baseline in PANSS Total Score, Difference to PBO Mean ([1]; Day 120, OC, listed as BX20): −5.45 | Adjusted Mean Change from Baseline in PANSS Total Score, Least Squares Estimates Mean ([1]; Day 120, OC, listed as BX30): −14.56 | Change from Baseline in PANSS Total Score, Difference to PBO Mean ([1]; Day 120, OC, listed as BX30): −4.19 | Adjusted Mean Change from Baseline in PANSS Total Score, Least Squares Estimates Mean ([1]; Day 120, POCF, listed as BX20): −10.30 | Change from Baseline in PANSS Total Score, Difference to PBO Mean ([1]; Day 120, POCF, listed as BX20): −5.21 | Adjusted Mean Change from Baseline in PANSS Total Score, Least Squares Estimates Mean ([1]; Day 120, POCF, listed as BX30): −9.68 | Change from Baseline in PANSS Total Score, Difference to PBO Mean ([1]; Day 120, POCF, listed as BX30): −4.59 | Adjusted Mean Change from Baseline in PANSS Total Score, Least Squares Estimates Mean ([1]; Day 150, LOCF, listed as BX20): −0.56 | Change from Baseline in PANSS Total Score, Difference to PBO Mean ([1]; Day 150, LOCF, listed as BX20): −7.04 | Adjusted Mean Change from Baseline in PANSS Total Score, Least Squares Estimates Mean ([1]; Day 150, LOCF, listed as BX30): −0.31 | Change from Baseline in PANSS Total Score, Difference to PBO Mean ([1]; Day 150, LOCF, listed as BX30): −6.80 | Adjusted Mean Change from Baseline in PANSS Total Score, Least Squares Estimates Mean ([1]; Day 150, OC, listed as BX20): −16.36 | Change from Baseline in PANSS Total Score, Difference to PBO Mean ([1]; Day 150, OC, listed as BX20): −1.97 | Adjusted Mean Change from Baseline in PANSS Total Score, Least Squares Estimates Mean ([1]; Day 150, OC, listed as BX30): −15.93 | Change from Baseline in PANSS Total Score, Difference to PBO Mean ([1]; Day 150, OC, listed as BX30): −1.54 | Adjusted Mean Change from Baseline in PANSS Total Score, Least Squares Estimates Mean ([1]; Day 150, POCF, listed as BX20): −10.40 | Change from Baseline in PANSS Total Score, Difference to PBO Mean ([1]; Day 150, POCF, listed as BX20): −5.20 | Adjusted Mean Change from Baseline in PANSS Total Score, Least Squares Estimates Mean ([1]; Day 150, POCF, listed as BX30): −9.55 | Change from Baseline in PANSS Total Score, Difference to PBO Mean ([1]; Day 150, POCF, listed as BX30): −4.35 | Adjusted Mean Change from Baseline in PANSS Total Score, Least Squares Estimates Mean ([1]; Day 180, LOCF, listed as BX20): −0.81 | Change from Baseline in PANSS Total Score, Difference to PBO Mean ([1]; Day 180, LOCF, listed as BX20): −7.91 | Adjusted Mean Change from Baseline in PANSS Total Score, Least Squares Estimates Mean ([1]; Day 180, LOCF, listed as BX30): −0.44 | Change from Baseline in PANSS Total Score, Difference to PBO Mean ([1]; Day 180, LOCF, listed as BX30): −7.54 | Adjusted Mean Change from Baseline in PANSS Total Score, Least Squares Estimates Mean ([1]; Day 180, OC, listed as BX20): −18.09 | Change from Baseline in PANSS Total Score, Difference to PBO Mean ([1]; Day 180, OC, listed as BX20): −3.60 | Adjusted Mean Change from Baseline in PANSS Total Score, Least Squares Estimates Mean ([1]; Day 180, OC, listed as BX30): −18.58 | Change from Baseline in PANSS Total Score, Difference to PBO Mean ([1]; Day 180, OC, listed as BX30): −4.09 | Adjusted Mean Change from Baseline in PANSS Total Score, Least Squares Estimates Mean ([1]; Day 180, POCF, listed as BX20): −10.84 | Change from Baseline in PANSS Total Score, Difference to PBO Mean ([1]; Day 180, POCF, listed as BX20): −5.43 | Adjusted Mean Change from Baseline in PANSS Total Score, Least Squares Estimates Mean ([1]; Day 180, POCF, listed as BX30): −9.92 | Change from Baseline in PANSS Total Score, Difference to PBO Mean ([1]; Day 180, POCF, listed as BX30): −4.52 | PANSS total, Adjusted Mean Change from Baseline (LS mean) ([1]; Month 6, LOCF, listed as BX20): −4.0 | PANSS total, Adjusted Mean Change from Baseline (LS mean) ([1]; Month 6, LOCF, listed as BX30): −0.4 | PANSS total, Adjusted Mean Change from Baseline (LS mean) ([1]; Week 6, LOCF, listed as BX20): −4.0 | PANSS total, Adjusted Mean Change from Baseline (LS mean) ([1]; Week 6, LOCF, listed as BX30): −2.6 | PANSS total scores versus PBO, LOCF analysis ([1]; both BX groups): statistically significantly superior to that in the PBO group from Week 6 onwards | CDSS total, Adjusted Mean Change from Baseline (LS mean) ([2]; Month 6, listed as BX20): 0.0 | CDSS total, Adjusted Mean Change from Baseline (LS mean) ([2]; Month 6, listed as BX30): 0.1 | CDSS total, Adjusted Mean Change from Baseline (LS mean) ([2]; Week 6, listed as BX20): −0.2 | CDSS total, Adjusted Mean Change from Baseline (LS mean) ([2]; Week 6, listed as BX30): −0.1 | mean CDSS total scores versus PBO, per-visit LOCF analysis ([2]; either BX group): no statistically significant differences
